The text below walks through data of ChEMBL document CHEMBL3217445, “Optimising pharmacokinetics of glucokinase activators with matched triplicate design sets the discovery of AZD3651 and AZD9485” (Medchemcomm, 2013).

A short description of data set [1]: Clearance in rat. The following applies: in vivo. Type of data set: ADME, organism-based.
For the next data set, the target named is T1, Hexokinase-4 (Homo sapiens, UniProt P35557).
T1 sequence (P35557 whole entry): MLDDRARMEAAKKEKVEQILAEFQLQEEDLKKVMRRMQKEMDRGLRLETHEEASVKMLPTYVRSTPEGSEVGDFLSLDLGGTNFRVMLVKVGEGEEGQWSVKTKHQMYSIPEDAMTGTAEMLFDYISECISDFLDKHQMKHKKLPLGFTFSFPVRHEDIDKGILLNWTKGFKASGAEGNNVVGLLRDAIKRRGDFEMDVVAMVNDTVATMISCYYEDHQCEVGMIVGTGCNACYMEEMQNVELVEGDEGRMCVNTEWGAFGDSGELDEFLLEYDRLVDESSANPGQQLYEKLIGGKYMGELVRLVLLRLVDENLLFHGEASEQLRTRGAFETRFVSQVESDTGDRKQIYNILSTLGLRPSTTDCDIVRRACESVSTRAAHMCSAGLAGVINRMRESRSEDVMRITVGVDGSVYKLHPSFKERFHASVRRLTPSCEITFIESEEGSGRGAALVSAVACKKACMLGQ
Description: Activation of glucokinase (unknown origin).

Data set [2] in a line: Clearance in dog. In kind it is ADME, organism-based, Canis lupus familiaris. The following applies: in vivo.
Data set [3] is filed under the species Rattus norvegicus. The data set can be described thus: Unbound clearance in rat. In kind it is ADME, organism-based. The following applies: in vivo.
Data set [4] can be described thus: Apparent permeability from apical to basolateral side in MDCK cells. Type of data set: ADME, cell-based, Canis lupus familiaris. Conditions: dog.
Data set [5] in a line: Volume of distribution at steady state in rat. In kind it is ADME, organism-based. Conditions: in vivo, read-out: Vdss.
Data set [6] is described as follows: Aqueous solubility in PBS buffer at pH 7.4 after 24 hrs by LC-UV analysis. In kind it is physicochemical.
Data set [7] has as its target Voltage-gated inwardly rectifying potassium channel KCNH2 (Homo sapiens, UniProt Q12809). Description: Inhibition of human ERG by electrophysiological analysis.
Data set [8] can be described thus: Volume of distribution at steady state in dog. In kind it is ADME, organism-based, Canis lupus familiaris. The following applies: in vivo, read-out: Vdss.
For a further data set, the species on record is Canis familiaris. Description: Unbound clearance in dog. Type of data set: ADME, organism-based, Canis lupus familiaris. The following applies: in vivo.
A short description of data set [9]: Oral bioavailability in rat. In kind it is ADME, organism-based. The following applies: in vivo.
Data set [10] in a line: Octanol-buffer partition coefficient, log D of the compound at pH 7.4 after 30 mins by shake flask method. Type of data set: physicochemical.
A short description of data set [11]: Oral bioavailability in dog. In kind it is ADME, organism-based, Canis lupus familiaris. Conditions: in vivo.
Another data set relates to Hepatocyte. Description: Intrinsic clearance in rat hepatocytes measured per […] cells. Type of data set: ADME, cell-based.
Data set [12] is described as follows: Half life in rat plasma. Type of data set: ADME, cell-free.
For data set [13], the system named is Rattus norvegicus. Description: Glucose lowering activity in Zucker rat at 3 mg/kg, po after 24 hrs. Type of data set: functional, organism-based. Set-up: dose 3 mg/kg.
The nature of data set [14]: Half life at pH 6. The following applies: buffer. Type of data set: physicochemical.

Values after ≈ are worked out from the molar mass of the structure shown. Active and inactive are the calls of the source. The calls are words filed in the database; no cut-off is given here.

Voltage-gated inwardly rectifying potassium channel KCNH2, sequence (Q12809 whole entry): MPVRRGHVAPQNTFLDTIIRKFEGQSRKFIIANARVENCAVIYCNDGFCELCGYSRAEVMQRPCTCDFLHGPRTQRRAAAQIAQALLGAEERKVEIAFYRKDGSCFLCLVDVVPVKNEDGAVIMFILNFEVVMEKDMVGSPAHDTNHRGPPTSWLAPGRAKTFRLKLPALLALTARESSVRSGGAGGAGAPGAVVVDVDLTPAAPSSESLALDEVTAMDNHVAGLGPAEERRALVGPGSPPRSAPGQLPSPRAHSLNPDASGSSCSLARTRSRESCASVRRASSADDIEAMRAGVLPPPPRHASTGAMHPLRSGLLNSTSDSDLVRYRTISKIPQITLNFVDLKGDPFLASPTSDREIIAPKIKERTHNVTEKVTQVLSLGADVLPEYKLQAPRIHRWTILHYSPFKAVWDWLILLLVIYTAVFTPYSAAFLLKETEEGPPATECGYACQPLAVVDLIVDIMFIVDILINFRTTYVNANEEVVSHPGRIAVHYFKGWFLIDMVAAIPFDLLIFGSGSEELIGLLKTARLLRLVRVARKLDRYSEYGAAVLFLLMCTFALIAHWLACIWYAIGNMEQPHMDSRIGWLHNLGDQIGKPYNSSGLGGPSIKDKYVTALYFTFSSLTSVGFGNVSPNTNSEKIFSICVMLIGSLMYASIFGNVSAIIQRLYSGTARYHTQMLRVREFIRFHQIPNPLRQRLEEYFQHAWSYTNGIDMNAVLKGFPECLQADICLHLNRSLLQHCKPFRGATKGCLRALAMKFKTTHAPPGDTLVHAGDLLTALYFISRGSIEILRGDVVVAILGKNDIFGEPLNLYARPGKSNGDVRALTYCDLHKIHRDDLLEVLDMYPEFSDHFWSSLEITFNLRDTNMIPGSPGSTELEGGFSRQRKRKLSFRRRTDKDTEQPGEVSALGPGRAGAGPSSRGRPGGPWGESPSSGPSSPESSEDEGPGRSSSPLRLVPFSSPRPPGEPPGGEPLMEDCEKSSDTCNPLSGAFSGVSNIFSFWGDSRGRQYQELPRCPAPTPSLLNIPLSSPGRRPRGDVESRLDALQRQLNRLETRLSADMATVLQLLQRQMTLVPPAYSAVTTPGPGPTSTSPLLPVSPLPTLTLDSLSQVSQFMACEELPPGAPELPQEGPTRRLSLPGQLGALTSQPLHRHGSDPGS

Consider `Cc1cnc(NC(=O)[C@H](CO[C@H](C)CO)Oc2ncnc3c2cnn3-c2c(Cl)cccc2C#N)cn1`, for which the clearance in [1] and in [2] was 18 mL/min/kg in each case. Further, the EC50 on Hexokinase-4 (read-out: EC50) was 78 nM. The CL free in the data set filed under Rattus norvegicus [3] came out at 39 mL/min/kg; in the data set filed under Canis familiaris it was 49 mL/min/kg. Also, in data set [4], the Papp A→B is 7.8 ×10⁻⁶ cm/s. Moreover, the Vd in [5] came to 1.5 L/kg; in data set [8] it was 0.9 L/kg. This molecule also returned a solubility at 24 h in [6] above 50 µM. For the same molecule, in data set [7], the IC50 is above 100 µM. Further, the bioavailability came to 100% in data set [9] and 43% in [11]. The logD at 0.5 h in [10] stood at 1.9.

Regarding `Cc1ccc(NC(=O)[C@H](COC2CCC2)Oc2ncnc3c2cnn3-c2ncccc2Cl)nc1`, the CL free in the data set filed under Rattus norvegicus [3] amounted to 1500 mL/min/kg. In the data set on Hepatocyte, this molecule showed a CLint of 130 µL/min/1e6 cells. In data set [12], this molecule came in with a half-life of 10 min.

`COC[C@H](Oc1ncnc2c1cnn2-c1ncccc1Cl)C(=O)Nc1ccc(C)cn1` showed a CLint in the data set on Hepatocyte below 2 µL/min/1e6 cells. In data set [12], this molecule showed a half-life above 300 min.

Consider `O=C(Nc1ccc(F)cn1)[C@H](CN1CC(O)C1)Oc1ncnc2c1cnn2-c1ccccc1Cl`, for which the clearance in data set [1] was determined as 31 mL/min/kg; in data set [2] it was 51 mL/min/kg. Further, the EC50 on Hexokinase-4 (read-out: EC50) came out at 78 nM. For the same molecule, the CL free in the data set filed under Rattus norvegicus [3] was found to be 90 mL/min/kg; in the data set filed under Canis familiaris, 170 mL/min/kg. The Papp A→B in data set [4] worked out at 9.8 ×10⁻⁶ cm/s. Also, the Vd in data set [5] and in data set [8] was 1.5 L/kg in each case. In addition, the solubility at 24 h in data set [6] was above 750 µM. The same molecule gave an IC50 in [7] of 36 µM. Moreover, the outcome in the data set on Rattus norvegicus [13] was Active. Also, the figures for the bioavailability in data set [9] and in data set [11] were 75% and 12%, respectively. Moreover, the logD at 0.5 h in data set [10] amounted to 2.3.

For `O=C(Nc1ccc(F)cn1)[C@H](CN1CC(O)C1)Oc1ncnc2c1cnn2-c1c(Cl)cccc1Cl`, the clearance turned out to be 42 mL/min/kg in data set [1] and 30 mL/min/kg in [2]. The EC50 at Hexokinase-4 (read-out: EC50) was 49 nM. Further, the CL free was found to be 320 mL/min/kg in the data set listed under Rattus norvegicus [3] and 210 mL/min/kg in the data set listed under Canis familiaris. In addition, in data set [4], the Papp A→B came to 7.3 ×10⁻⁶ cm/s. Also, the Vd in data set [5] was determined as 1.7 L/kg; in data set [8] it was 1.1 L/kg. For the same molecule, the solubility at 24 h in data set [6] worked out at 80 µM (≈ 41.5 µg/mL). In addition, the outcome in the data set on Rattus norvegicus [13] was Active. The bioavailability came to 28% in data set [9] and 32% in data set [11]. The molecule also showed a logD at 0.5 h in data set [10] of 2.7.

In the data set filed under Rattus norvegicus [3], `Cc1ccc(NC(=O)[C@H](COC(C)C)Oc2ncnc3c2cnn3-c2ncccc2Cl)nc1` had a CL free of 390 mL/min/kg. Besides, the CLint in the data set with Hepatocyte was found to be 66 µL/min/1e6 cells. This molecule also registered a half-life in [12] of 17 min.

In data set [1], `C[C@H](CO)OC[C@H](Oc1ncnc2c1cnn2-c1ncccc1Cl)C(=O)Nc1ccc(F)cn1` yielded a clearance of 43 mL/min/kg. Besides, the EC50 at Hexokinase-4 (read-out: pEC50 (converted)) is 794 nM. The CL free in the data set listed under Rattus norvegicus [3] amounted to 98 mL/min/kg. In addition, the half-life in data set [14] is above 23 days; in data set [12] it was 16 min. Further, the IC50 in [7] is above 100 µM. Besides, the logD at 0.5 h in [10] turned out to be 1.7.

`C[C@H](CO)OC[C@H](Oc1ncnc2c1cnn2-c1ncccc1Cl)C(=O)Nc1ccc(Cl)cn1` displayed a clearance in data set [1] of 50 mL/min/kg. For the same molecule, the EC50 on Hexokinase-4 (read-out: pEC50 (converted)) is 398 nM. In the data set filed under Rattus norvegicus [3], this molecule displayed a CL free of 190 mL/min/kg. The results for the half-life in data set [14] and in data set [12] were above 23 days and 19 min, respectively. The molecule also showed a logD at 0.5 h in [10] of 2.3.

With `Cc1cnc(NC(=O)[C@H](CN2CC(O)C2)Oc2ncnc3c2cnn3-c2c(Cl)cccc2Cl)cn1`, the clearance in data set [1] turned out to be 225 mL/min/kg; in data set [2], 18 mL/min/kg. In addition, the EC50 on Hexokinase-4 (read-out: EC50) came out at 96 nM. Also, the CL free in the data set filed under Rattus norvegicus [3] turned out to be 74 mL/min/kg; in the data set filed under Canis familiaris, 60 mL/min/kg. In addition, the Papp A→B in data set [4] was 3.5 ×10⁻⁶ cm/s. For the same molecule, the Vd stood at 1.2 L/kg in data set [5] and 1.1 L/kg in data set [8]. In addition, in data set [6], the solubility at 24 h is above 750 µM. The molecule also displayed an IC50 in data set [7] of 62 µM. Further, the bioavailability in data set [9] stood at 38%; in data set [11], 87%. For the same molecule, the pH-dependent lipophilicity (logD) at 0.5 h in data set [10] is 2.3.

In turn, `CCOC[C@H](Oc1ncnc2c1cnn2-c1ncccc1Cl)C(=O)Nc1ccc(C)cn1` gave a CL free in the data set filed under Rattus norvegicus [3] of 340 mL/min/kg. The molecule also came in with a CLint in the data set on Hepatocyte of 12 µL/min/1e6 cells. The half-life in [12] came out at 37 min.

What is called clearance is the volume of plasma or blood freed of the substance per unit of time. Broadly, the Papp A→B is how fast a substance crosses the layer from the apical side. Usually solubility stands for the dissolved amount per volume that the medium holds. Broadly, the IC50 is the concentration that inhibits the measured activity by half. High values mean a need for much substance, low ones inhibition by little substance. What is called bioavailability is dose-corrected exposure relative to a reference, in per cent. A low value points to poor availability. One may read the logD as lipophilicity at a set pH, counting ionised and neutral species. Read a low logD as lower lipophilicity. One may read the half-life as the time in which the quantity being followed falls by half. Low values mean fast loss, high ones slow loss.
